Measurements published in patent US20250084096A1, “TERT-BUTYL (S)-2-(4-(PHENYL)-6H-THIENO[3, 2-F][1, 2, 4]TRIAZOLO[4, 3-A] [1,4]DIAZEPIN-6-YL) ACETATE DERIVATIVES AND RELATED COMPOUNDS AS BROMODOMAIN BRD4 INHIBITORS FOR TREATING CANCER” (Genentech, Inc., priority 2018, published 2025).
pIC50: −log10 of the molar value.

Experiments:
[1] = target: T1, BRD4 (Homo sapiens (Human), UniProt O60885); test: BRD4 degradation assay in EoL-1 cells; type: cell-based
Description: 2 μL of each sample from the serial dilution was transferred to 98 μL of assay media as an intermediate dilution. 5 μL of each well of the intermediate dilution was added to 45 μL of cell plate. Columns 1, 2, 23 and 24 were treated with only 0.2% final concentration of DMSO for data normalization as “neutral controls”. After compound treatment, cell plates were stored in a 37° C. incubator for 4 hours.
The cell plate was incubated at room temperature for 20 minutes. Well contents were aspirated and washed with 100 μL/well PBS 3 times. 50 μL/well of PBS (pH7.5) containing 0.5% w/v bovine serum albumen, 0.5% w/v Triton X-100 (Block/Permeabilzation Buffer) was added to each well. Samples were incubated for 20 minutes. Well contents were aspirated and washed 3 times with 100 μL/well of PBS. PBS was aspirated from the well and 50 μL per well of EoL-1 Block Buffer (PBS containing 10% Normal Goat Serum (Abcam #ab7481)) was added to each well. Plates were incubated at room temperature for 30 minutes. Block buffer was decanted from the wells.
25 μL per well of BRD4 antibody diluted in buffer was added and incubated overnight at 4° C. On day-2 samples were washed 3 times with 100 μL/well of PBS. […] Samples were incubated for 2 hours at room temperature. Samples were washed 3 times with 100 μL PBS.
(§1) Quantitative fluorescence imaging of BRD4 was carried out using an Opera Phenix High-Content Screening System. […] Hoechst channel was used to identify nuclear region. […] Data analysis was carried out using Genedata Screener, with DMSO and no primary antibody control treated samples being used to define the 0% and 100% changes in BRD4. The dose-response log(inhibitor) vs. response was used to define the inflexion point of curve (IC50) and the plateau of the maximal effect. The Sinf value reports degradation as percent change in protein level, so complete loss of the protein target is −100%. Sinf is the maximum degradation achieved, obtained by determining the bottom of a dose-response (where the S-shaped curve levels out).

[2] = tested on: MYC expression; test: Myc mRNA assay in MV-4-11 cells; type: cell-based; conditions: for Maximum Inhibition (%) (mean) of MYC expression: 4 hours, QuantiGene 2.0; for pIC50: Homo sapiens, MV4-11, 4 hours, QuantiGene 2.0, read-out: Inhibition of MYC expression Average IC50
Description: Pharmacologic inhibition of MYC is achievable through targeting BET bromodomains through small molecule binder or degrader mechanisms.
Test compounds diluted in DMSO were transferred to the cell plates, keeping final DMSO concentration consistent at 0.1%, and incubated for 4 hours at 37° C. […] Luminescence was read using an EnVision plate reader (PerkinElmer) and IC50s generated in Genedata Screener using a 4-parameter non-linear regression fit.

[3] = target: BRD4_BD2 bromodomain (Homo sapiens (Human), UniProt O60885); test: BRD4 BD2 biochemical binding assay (TR-FRET); conditions: displacement of biotinylated ligand Compound C
Description: (§2) The following assay was used to measure the IC50 for the test compounds ability to bind to the BRD4_BD1 and BRD4_BD2 bromodomains.
(§3) DMSO was backfilled to a final volume of 30 nL as required. […] 1× Assay Buffer was dispensed (5 μL per well) into Minimum Signal control wells. 5 μL of Solution A-3× was dispensed into test wells and Maximum Signal control wells (containing DMSO instead of test compound). Samples were incubated 10 minutes at room temperature. 5 μL of Solution B-3x was dispensed into all wells. Samples were incubated incubate for 10 minutes at room temperature. 5 μL of Solution C-3x was dispensed into all wells. Samples were incubated 40 minutes at room temperature. Plates were read using an Envision (Perkin Elmer) with the following settings: Detection—LANCE Dual Laser 50/200. […] Percentage inhibition was calculated relative to the Minimum Signal control and Maximum Signal control wells. IC50 values were derived by four parameter curve fitting using the Robust method.

[4] = target: BRD4_BD1 bromodomain (Homo sapiens (Human), UniProt O60885); test: BRD4 BD1 biochemical binding assay (TR-FRET); conditions: displacement of biotinylated ligand Compound C
Description: as §2, §3

[5] = target: T1, BRD4; test: BRD4 degradation assay in PC3-Steap1 cells; type: cell-based; conditions: for Dmax: complete loss = −100%, read-out: Sinf (maximum degradation, percent change in protein level)
Description: 2 μL of each sample from the serial dilution was transferred to 98 μL of assay media as an intermediate dilution. 5 μL of intermediate dilution was added to 45 μL of cell plate. Columns 1, 2, 23 and 24 were treated with only 0.2% w/v final concentration of DMSO for data normalization as “neutral controls”. After compound treatment, cell plates were stored in a 37° C. incubator for 4 hours.
Cell plate was incubated at room temperature for 20 minutes. Well contents were aspirated and washed with 100 μL/well PBS 3 times. 50 μL/well of PBS containing 0.5% w/v bovine serum albumen, 0.5% w/v Triton X-100 (Antibody Dilution Buffer) was added to each well. Samples were incubated for 30 minutes. Well contents were aspirated and washed 3 times with 100 μL/well of PBS. PBS was aspirated from the wells.
25 μL per well of BRD4 antibody diluted in buffer was added and incubated overnight at 4° C. On day-3 samples were washed 3 times with 100 μL/well of PBS. […] Samples were incubated for 2 hours at room temperature. Samples were washed 3 times with 100 μL PBS.
as §1, with “The […]” for “The Sinf”

[6] = 4 hours, immunofluorescence, read-out: Degradation of BRD4 Average EC50
[7] = read-out: Degradation of BRD4 Average EC50, 4 hours, immunofluorescence

| Compound | DC50 [1, 6] | Maximum Inhibition (%) (mean) of MYC expression [2] | pIC50 [2] | pIC50 [3] | pIC50 [4] | Dmax ([5]; 4 hours) | DC50 [5, 6] | DC50 [1, 7] | DC50 [5, 7] |
| --- | --- | --- | --- | --- | --- | --- | --- | --- | --- |
| Cc1sc2c(c1C)C(c1ccc(C#CCN(C)C)cc1)=N[C@@H](CC(=O)OC(C)(C)C)c1nnc(C)n1-2 [Compound 3a, tert-butyl (S)-2-(4-(4-(3-(dimethylamino)prop-1-yn-1-yl)phenyl)-2,3,9-trimethyl-6H-thieno[3,2-f][1,2,4]triazolo[4,3-a][1,4]diazepin-6-yl)acetate] | > 20000 nM | 78.7% | 7.93 | 7.68 | 7.84 | -41.9% | > 20000 nM | – | – |
| CCC#Cc1ccc(C2=N[C@@H](CC(=O)OC(C)(C)C)c3nnc(C)n3-c3sc(C)c(C)c32)cc1 [Compound 13a, tert-butyl (S)-2-(4-(4-(but-1-yn-1-yl)phenyl)-2,3,9-trimethyl-6H-thieno[3,2-f][1,2,4]triazolo[4,3-a][1,4]diazepin-6-yl)acetate] | – | 71.6% | 6.79 | 7.54 | 7.63 | – | – | > 20000 nM | > 20000 nM |
| CC(=O)NCC#Cc1ccc(C2=N[C@@H](CC(=O)OC(C)(C)C)c3nnc(C)n3-c3sc(C)c(C)c32)cc1 [Compound 10a, tert-butyl (S)-2-(4-(4-(3-acetamidoprop-1-yn-1-yl)phenyl)-2,3,9-trimethyl-6H-thieno[3,2-f][1,2,4]triazolo[4,3-a][1,4]diazepin-6-yl)acetate] | > 20000 nM | 79.3% | 8.15 | 7.97 | 8.18 | – | > 20000 nM | – | – |
| CNCC#Cc1ccc(C2=N[C@@H](CC(=O)OC(C)(C)C)c3nnc(C)n3-c3sc(C)c(C)c32)cc1 [Compound 2a, tert-butyl (S)-2-(2,3,9-trimethyl-4-(4-(3-(methylamino)prop-1-yn-1-yl)phenyl)-6H-thieno[3,2-f][1,2,4]triazolo[4,3-a][1,4]diazepin-6-yl)acetate] | > 20000 nM | 77.9% | 7.95 | 7.77 | 7.84 | -21.8% | > 20000 nM | – | – |
